From the supplement of paper PMC10733146

Tests used:
Assay in all cases: viability relative to DMSO control (fraction); higher = less drug effect (more viable cells)
Conditions in all cases: 48 h
Tofacitinib = compound: C[C@@H]1CCN(C(=O)CC#N)C[C@@H]1N(C)c1ncnc2[nH]ccc12 [Tofacitinib]
Method in brief: (§1)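 Cells were incubated for 48 h at 37 °C and 5% CO2 in RPMI-1640 with penicillin/streptomycin, L-glutamine and human serum, at 4 × 10^4 cells per well in 384-well plates with compounds pre-plated at five concentrations, one well each. These were primary mononuclear tumour cells, fresh or cryopreserved, Ficoll-isolated from blood or bone marrow or obtained from processed lymph node. Viability values are CellTiter-Glo luminescence relative to the median of 16 inner DMSO wells.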

[1] = compound: CCc1ccc(/C=C2/SC(=S)NC2=O)cc1
Method in brief: as §1

Filgotinib = compound: O=C(Nc1nc2cccc(-c3ccc(CN4CCS(=O)(=O)CC4)cc3)n2n1)C1CC1 [Filgotinib]
Method in brief: as §1

Navitoclax = compound: CC1(C)CCC(c2ccc(Cl)cc2)=C(CN2CCN(c3ccc(C(=O)NS(=O)(=O)c4ccc(N[C@H](CCN5CCOCC5)CSc5ccccc5)c(S(=O)(=O)C(F)(F)F)c4)cc3)CC2)C1 [Navitoclax]
Method in brief: as §1

EPZ-6438 = compound: CCN(c1cc(-c2ccc(CN3CCOCC3)cc2)cc(C(=O)NCc2c(C)cc(C)[nH]c2=O)c1C)C1CCOCC1 [EPZ-6438]
Method in brief: as §1

Palbociclib = compound: CC(=O)c1c(C)c2cnc(Nc3ccc(N4CCNCC4)cn3)nc2n(C2CCCC2)c1=O [Palbociclib]
Method in brief: as §1

Pomalidomide = compound: Nc1cccc2c1C(=O)N(C1CCC(=O)NC1=O)C2=O [Pomalidomide]
Method in brief: as §1

Selinexor = compound: O=C(/C=C\n1cnc(-c2cc(C(F)(F)F)cc(C(F)(F)F)c2)n1)NNc1cnccn1 [Selinexor]
Method in brief: as §1

Duvelisib = compound: C[C@H](Nc1ncnc2nc[nH]c12)c1cc2cccc(Cl)c2c(=O)n1-c1ccccc1 [Duvelisib]
Method in brief: as §1

Chlorambucil = compound: O=C(O)CCCc1ccc(N(CCCl)CCCl)cc1 [Chlorambucil]
Method in brief: as §1

Etoposide = compound: COc1cc([C@@H]2c3cc4c(cc3[C@@H](O[C@@H]3O[C@@H]5CO[C@@H](C)O[C@H]5[C@H](O)[C@H]3O)[C@H]3COC(=O)[C@H]23)OCO4)cc(OC)c1O [Etoposide]
Method in brief: as §1

SGC 0946 = compound: CC(C)N(CCCNC(=O)Nc1ccc(C(C)(C)C)cc1)C[C@H]1O[C@@H](n2cc(Br)c3c(N)ncnc32)[C@H](O)[C@@H]1O [SGC 0946]
Method in brief: as §1

[2] = compound: C[C@H](NC(=O)CCC(F)(F)F)C(=O)N[C@@H]1C(=O)N(CCO)c2ncccc2-c2ccccc21
Method in brief: as §1

Midostaurin hydrate = compound: CO[C@@H]1[C@H](N(C)C(=O)c2ccccc2)C[C@H]2O[C@]1(C)n1c3ccccc3c3c4c(c5c6ccccc6n2c5c31)C(=O)NC4 [Midostaurin hydrate]
Method in brief: as §1

primary DLBCL patient cells (S049) gave a viability (Tofacitinib; 0.024 µM) of 0.811, a viability (Tofacitinib; 0.12 µM) of 0.775 and a viability (Tofacitinib; 0.6 µM) of 0.926. It also gave a viability (Tofacitinib; 3 µM) of 1.01, a viability (Tofacitinib; 15 µM) of 1.32 and a viability ([1]; 0.024 µM) of 0.744. For the same test system, the viability ([1]; 0.12 µM) was 0.798, the viability ([1]; 0.6 µM) was 0.902 and the viability ([1]; 3 µM) was 0.873. For the same test system, the viability ([1]; 15 µM) was 0.737, the viability (Filgotinib; 0.024 µM) was 0.918 and the viability (Filgotinib; 0.12 µM) was 0.969. For the same test system, the viability (Filgotinib; 0.6 µM) was 1.03, the viability (Filgotinib; 3 µM) was 0.926 and the viability (Filgotinib; 15 µM) was 0.203. For the same test system, the viability (Navitoclax; 0.0032 µM) was 1, the viability (Navitoclax; 0.016 µM) was 0.834 and the viability (Navitoclax; 0.08 µM) was 0.375. For the same test system, the viability (Navitoclax; 0.4 µM) was 0.0676, the viability (Navitoclax; 2 µM) was 0.0439 and the viability (EPZ-6438; 0.024 µM) was 1.08. For the same test system, the viability (EPZ-6438; 0.12 µM) was 1.08, the viability (EPZ-6438; 0.6 µM) was 1.03 and the viability (EPZ-6438; 3 µM) was 1.05. The viability (EPZ-6438; 15 µM) was 0.811, the viability (Palbociclib; 0.024 µM) was 0.999 and the viability (Palbociclib; 0.12 µM) was 0.968. It also gave a viability (Palbociclib; 0.6 µM) of 0.88, a viability (Palbociclib; 3 µM) of 0.496 and a viability (Palbociclib; 15 µM) of 0.0932. It also gave a viability (Pomalidomide; 0.0032 µM) of 0.959, a viability (Pomalidomide; 0.016 µM) of 1.11 and a viability (Pomalidomide; 0.08 µM) of 1. For the same test system, the viability (Pomalidomide; 0.4 µM) was 0.899, the viability (Pomalidomide; 2 µM) was 0.948 and the viability (Selinexor; 0.008 µM) was 0.54. For the same test system, the viability (Selinexor; 0.04 µM) was 0.486, the viability (Selinexor; 0.2 µM) was 0.499 and the viability (Selinexor; 1 µM) was 0.669. For the same test system, the viability (Selinexor; 5 µM) was 0.586, the viability (Duvelisib; 0.0016 µM) was 0.988 and the viability (Duvelisib; 0.008 µM) was 0.969. For the same test system, the viability (Duvelisib; 0.04 µM) was 0.92, the viability (Duvelisib; 0.2 µM) was 0.986 and the viability (Duvelisib; 1 µM) was 0.81. For the same test system, the viability (Chlorambucil; 0.032 µM) was 0.96, the viability (Chlorambucil; 0.16 µM) was 0.976 and the viability (Chlorambucil; 0.8 µM) was 1.05. For the same test system, the viability (Chlorambucil; 4 µM) was 0.952, the viability (Chlorambucil; 20 µM) was 0.589 and the viability (Etoposide; 0.032 µM) was 0.907. It also gave a viability (Etoposide; 0.16 µM) of 1.01, a viability (Etoposide; 0.8 µM) of 0.962 and a viability (Etoposide; 4 µM) of 0.882. It also gave a viability (Etoposide; 20 µM) of 0.548, a viability (SGC 0946; 0.024 µM) of 0.919 and a viability (SGC 0946; 0.12 µM) of 1.05. It also gave a viability (SGC 0946; 0.6 µM) of 0.926, a viability (SGC 0946; 3 µM) of 0.719 and a viability (SGC 0946; 15 µM) of 0.183.

primary AML patient cells (S055) was tested, and the viability (Tofacitinib; 0.024 µM) was 0.979, the viability (Tofacitinib; 0.12 µM) was 0.964 and the viability (Tofacitinib; 0.6 µM) was 0.913. The viability (Tofacitinib; 3 µM) was 0.949, the viability (Tofacitinib; 15 µM) was 0.946 and the viability (Filgotinib; 0.024 µM) was 0.942. It also gave a viability (Filgotinib; 0.12 µM) of 0.936, a viability (Filgotinib; 0.6 µM) of 0.959 and a viability (Filgotinib; 3 µM) of 0.916. It also gave a viability (Filgotinib; 15 µM) of 0.594, a viability ([2]; 0.016 µM) of 1.05 and a viability ([2]; 0.08 µM) of 1.09. It also gave a viability ([2]; 0.4 µM) of 1.06, a viability ([2]; 2 µM) of 1.08 and a viability ([2]; 10 µM) of 1. For the same test system, the viability (EPZ-6438; 0.024 µM) was 1.01, the viability (EPZ-6438; 0.12 µM) was 1.04 and the viability (EPZ-6438; 0.6 µM) was 0.976. It also gave a viability (EPZ-6438; 3 µM) of 0.97, a viability (EPZ-6438; 15 µM) of 0.917 and a viability (Midostaurin hydrate; 0.024 µM) of 1.06. The viability (Midostaurin hydrate; 0.12 µM) was 1.02, the viability (Midostaurin hydrate; 0.6 µM) was 1.09 and the viability (Midostaurin hydrate; 3 µM) was 1.12. For the same test system, the viability (Midostaurin hydrate; 15 µM) was 1.1, the viability (Pomalidomide; 0.0032 µM) was 0.955 and the viability (Pomalidomide; 0.016 µM) was 0.951. It also gave a viability (Pomalidomide; 0.08 µM) of 0.978, a viability (Pomalidomide; 0.4 µM) of 0.966 and a viability (Pomalidomide; 2 µM) of 0.975. The viability (Selinexor; 0.008 µM) was 0.92, the viability (Selinexor; 0.04 µM) was 0.861 and the viability (Selinexor; 0.2 µM) was 0.833. The viability (Selinexor; 1 µM) was 0.575, the viability (Selinexor; 5 µM) was 0.535 and the viability (Duvelisib; 0.0016 µM) was 0.937. For the same test system, the viability (Duvelisib; 0.008 µM) was 0.954, the viability (Duvelisib; 0.04 µM) was 0.893 and the viability (Duvelisib; 0.2 µM) was 0.862. The viability (Duvelisib; 1 µM) was 0.77, the viability (Chlorambucil; 0.032 µM) was 0.993 and the viability (Chlorambucil; 0.16 µM) was 1.04. It also gave a viability (Chlorambucil; 0.8 µM) of 0.988, a viability (Chlorambucil; 4 µM) of 0.997 and a viability (Chlorambucil; 20 µM) of 0.841. It also gave a viability (Etoposide; 0.032 µM) of 1.03, a viability (Etoposide; 0.16 µM) of 1 and a viability (Etoposide; 0.8 µM) of 0.989. For the same test system, the viability (Etoposide; 4 µM) was 1.03, the viability (Etoposide; 20 µM) was 0.937 and the viability (SGC 0946; 0.024 µM) was 0.987. For the same test system, the viability (SGC 0946; 0.12 µM) was 1, the viability (SGC 0946; 0.6 µM) was 1.02 and the viability (SGC 0946; 3 µM) was 0.986. For the same test system, the viability (SGC 0946; 15 µM) was 0.836.
